Test results taken from patent US20190275167A1, “GLASS FORMULATIONS AND USES THEREOF” (priority 2018, published 2019).

Key:
[1] = Drug release from heat-molded pellets/articles in release buffer (PBS, 1% FBS in PBS or 100% FBS) at 37° C., HPLC quantification; assay type: physicochemical; settings: for Drug release from heat molded pellets: pellets 1 mm×1 mm
Procedure: Samples were incubated at 37° C. on a shaker rotating at 115 rpm. After 1 day, 3 days, 7 days, and subsequently in alternating 3 and 4 day intervals (i.e., 1, 3, 7, 10, 14 days etc.), release buffer was sampled directly (PBS) or syringe filtered, proteins were precipitated with acetonitrile, and drug release products were extracted. The samples were analyzed by high performance liquid chromatography (HPLC) to quantify drug products.

[2] = Ethylene oxide (ETO) gas sterilization of heat-molded pellets, purity by HPLC and drug release pre- and post-ETO; assay type: physicochemical; settings: ETO gas at 55° C.
[3] = test system: joint of a subject suffering from inflammation, e.g., arthritis; experiment: Microparticles and nanoparticles injected into the joint of a subject suffering from inflammation; assay type: in vivo
Text: Microparticles and nanoparticles are formed from Compound 1 according to the methods described in above. […] Local inflammation in the joint of the subject is reduced. Similarly, the other compounds of the disclosure can likewise be used to form micro- and nanoparticles and injected into the joint of a subject for the purposes of treating, e.g., inflammation, and the drug is released at a steady rate over several months (e.g., three months).

Speed of drug release compared to other drug dimers with triethylene glycol linker ([1]; 100% FBS)	Drug release from heat molded pellets ([1]; 100% FBS, 37° C.)	Drug release from heat molded pellets ([1]; PBS, 37° C.)	Compound	further results
release very quickly			Hydrocortisone-Triethylene Glycol-Hydrocortisone [Compound 2]	
			C[C@@H]1C[C@H]2[C@@H]3CCC4=CC(=O)C=C[C@]4(C)[C@@]3(F)[C@@H](O)C[C@]2(C)[C@@]1(O)C(=O)COC(=O)OCCOCCOCCOC(=O)OCC(=O)[C@@]1(O)[C@H](C)C[C@H]2[C@@H]3CCC4=CC(=O)C=C[C@]4(C)[C@@]3(F)[C@@H](O)C[C@@]21C [Compound 1, Dexamethasone-Triethylene Glycol-Dexamethasone]	Mechanism of drug release from pellets (representative images over time) ([1]; 100% FBS, 37° C.): surface erosion; Dexamethasone release profile from articles ([1]; over the course of 12 weeks or more, FIGS. 1E, 12E, 15C, 17D): generally linear; Change in pellet purity due to ETO sterilization (HPLC) ([2]; pre- vs post-sterilization): no changes; Change in release properties due to ETO sterilization ([2]; release in 1% FBS in PBS or 100% FBS): no changes; Local inflammation in the joint of the subject [3]: reduced; Release of drug into the subject from injected micro- and nanoparticles [3]: steady rate over three months; Shape of pellets during surface erosion (FIG. 1F (100% FBS)): maintaining their shape; Physical form (shape) changes of articles (physiologically relevant conditions): do not
	no drug was released	no drug was released	Fusidic Acid-Triethylene Glycol-Fusidic Acid (ester) [Compound 15]	
release very quickly			Fusidic Acid-Triethylene Glycol-Fusidic Acid (carbonate ester) [Compound 9]	
	no drug was released	no drug was released	Ethinylestradiol-Triethylene Glycol-Ethinylestradiol [Compound 16]	

Compound	Speed of drug release compared to other drug dimers with triethylene glycol linker ([1]; 100% FBS)	Drug release from heat molded pellets ([1]; 100% FBS, 37° C.)	Drug release from heat molded pellets ([1]; PBS, 37° C.)	further results
Cholesterol-Triethylene Glycol-Cholesterol [Compound 14]		no drug was released	no drug was released	
